Data reported in patent US4438136A, “Prostaglandins” (National Research Development Corporation, priority 1979, dated 1984).

What was measured:
Human Platelets [1] = biological target: T1, Human Platelets (Homo sapiens, UniProt P21731); experiment: Human Platelet System: antagonism of platelet aggregation induced by 11,9-(epoxymethano) PGH2; type: cell-based; settings: for Kb: vs 11,9-epoxymethano PGH2 (1×10^-7 to 5×10^-7 M), compound added 5 minutes before, Gaddum-Schild, read-out: AFFINITY CONSTANTS (KB) Human Platelets (converted); for inhibition of aggregatory activity of 11,9-(epoxymethano) PGH2 / antagonism in platelet test: human platelets in vitro, in words
T1 construct: Platelet-rich plasma is obtained from fresh, citrated human blood; endogenous in cells; host or cells: human platelets (platelet-rich plasma from citrated blood)
T1 sequence (P21731 1-343): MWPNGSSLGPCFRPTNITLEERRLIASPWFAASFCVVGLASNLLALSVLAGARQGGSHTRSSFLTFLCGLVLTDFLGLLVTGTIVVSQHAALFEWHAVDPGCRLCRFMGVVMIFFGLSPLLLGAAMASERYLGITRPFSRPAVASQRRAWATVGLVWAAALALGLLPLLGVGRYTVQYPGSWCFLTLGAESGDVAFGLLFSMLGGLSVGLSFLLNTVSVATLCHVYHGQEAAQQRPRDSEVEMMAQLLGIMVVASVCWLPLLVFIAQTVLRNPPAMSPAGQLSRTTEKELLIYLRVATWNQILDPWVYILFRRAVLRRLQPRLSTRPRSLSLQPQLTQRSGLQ
Description: (§1) It is believed that such inhibition is the result of the compounds being thromboxane antagonists and the activity of the compounds is for convenience hereinafter discussed in these terms. […] The related compounds described and claimed in our copending application Ser. No. 431,554 filed Sept. […] Structural features which tend to endow these compounds with a more pure antagonist form of activity are described in that application. It has been found, however, that the compounds of the present invention generally show little tendency to deviate from pure antagonist activity. Activity has also been observed on compounds according to the present invention on guinea pigs tracheal muscle.
(§2) Various of the compounds described in Examples 1 to 3 are tested for biological activity in the human platelet and rabbit aorta systems.
Platelet-rich plasma is obtained from fresh, citrated human blood. Addition of the 11,9-epoxymethano analogue of PGH2 (1×10^-7 to 5×10^-7 M) causes immediate aggregation recorded as an increase in light transmission (600 nm). In a second experiment the individual compounds are added 5 minutes previously to addition of the PGH2 analogue. The dose of the PGH2 analogue added is then increased to a level which gives a similar response to that obtained in the absence of antogonist. The affinity constant, KB, for the compound is calculated according to the Gaddum-Schild Equation (based on Law of Mass Action).
(§3) [B]=molar concentration of compound

Rabbit Aorta = biological target: T2, Rabbit Aorta (Oryctolagus cuniculus, UniProt Q6WQI8); experiment: Rabbit Aorta System: antagonism of contraction of aorta strips induced by 11,9-(epoxymethano) PGH2; type: cell-based; settings: for Kb: read-out: AFFINITY CONSTANTS (KB) Rabbit Aorta (converted); for antagonist/agonist character in rabbit aorta strip test: in words
T2 construct: contraction by 11,9-(epoxymethano)PGH2 (U-46619)
T2 sequence (Q6WQI8 1-233): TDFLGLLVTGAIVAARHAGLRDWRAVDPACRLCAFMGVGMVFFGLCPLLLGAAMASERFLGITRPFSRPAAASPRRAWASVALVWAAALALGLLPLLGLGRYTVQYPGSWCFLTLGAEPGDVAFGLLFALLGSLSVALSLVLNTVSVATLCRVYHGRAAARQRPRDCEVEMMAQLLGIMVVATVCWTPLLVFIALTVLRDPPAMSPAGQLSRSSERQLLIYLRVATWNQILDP
Description: as §1, §2, §3
Spiral strips of thoracic aorta are suspended in Kreb's-Henseleit solution and aerated with 95% O2 /5% CO2 at 37° C. Tension changes are recorded with a Grass FTO3 force transducer. Initially, cumulative dose response curves to 11,9-(epoxymethano) PGH2 (2×10^-9, 1×10^-8, 5×10^-8 and 2.5×10^-7 M) are obtained. In a second experiment the individual compounds are added 30 mins previous to the addition of the series of agonist doses. Affinity constants are calculated as above.

Human Platelets [2] = experiment: Antagonism of ADP aggregatory action on platelets; type: cell-based
platelet = experiment: Block of aggregatory action of arachidonic acid on platelets; type: cell-based, human; settings: in words
α-adrenoceptors = experiment: Block of contractile action of noradrenaline (α-adrenoceptors); type: cell-based, rabbit; settings: in words
[3] = vs 11,9-(epoxymethano) PGH2, compound added 30 mins before, Gaddum-Schild

Kb (Human Platelets [1]) [nM] | Kb (Rabbit Aorta; [3]) [nM] | Compound | also measured
10000 | – | CN(C)c1ccc(C(=O)NN=C[C@H]2[C@@H]3CC[C@@H](C3)[C@@H]2C/C=C\CCCC(=O)O)cc1 (relative stereo) | AFFINITY CONSTANTS (KB) Rabbit Aorta (Rabbit Aorta; [3]): < 2.5e-05 L/mol
– | 5000 | COc1ccc(C(=O)NN=C[C@H]2[C@@H]3CC[C@@H](C3)[C@@H]2C/C=C\CCCC(=O)O)cc1 (relative stereo) | –
– | 1490 | O=C(O)CCC/C=C\C[C@H]1[C@H]2CC[C@H](C2)[C@@H]1C=NNC(=O)Cc1ccccc1 (relative stereo) | –
1390 | 256 | O=C(O)CCC/C=C\C[C@H]1[C@H]2CC[C@H](C2)[C@@H]1C=NNC(=O)C(c1ccccc1)c1ccccc1 (relative stereo) | Kb (Human Platelets [2]; antagonism of ADP, table head gives liters/mole, 5 min): 8330 nM; antagonism of ADP (Human Platelets [2]; in words): Slight antagonism of ADP
500 | 1520 | O=C(O)CCC/C=C\C[C@H]1[C@H]2CC[C@H](C2)[C@@H]1C=NNC(=O)CC(c1ccccc1)c1ccccc1 (relative stereo) | –
19200 | 2700 | O=C(O)CCC/C=C\C[C@H]1[C@H]2CC[C@H](C2)[C@@H]1C=NNC(=O)COc1ccccc1 (relative stereo) | –
1450 | 1200 | O=C(O)CCCCCC[C@H]1[C@H]2CC[C@H](C2)[C@@H]1C=NNC(=O)Nc1ccccc1 (relative stereo) | –
– | – | O=C(O)CCC/C=C\C[C@H]1[C@H]2CC[C@H](C2)[C@@H]1C=NNC(=O)c1ccc(F)cc1 (relative stereo) [Example 1, 5-endo-(6'-Caboxyhex-2'Z-enyl)-6-exo-(N-p-fluorobenzoylhydrazonomethyl)-bicyclo[2,2,1]heptane] | inhibition of aggregatory activity of 11,9-(epoxymethano) PGH2 / antagonism in platelet test (Human Platelets [1]): antagonists in the platelet test; antagonist/agonist character in rabbit aorta strip test (Rabbit Aorta): pure antagonists in the rabbit aorta strip test; block of aggregatory action of arachidonic acid (platelet): block the aggregatory action of archidonic acid; block of contractile action of noradrenaline (α-adrenoceptors): do not block the contractile action of noradrenaline
– | – | O=C(O)CCC/C=C\C[C@H]1[C@H]2CC[C@H](C2)[C@@H]1C=NNC(=O)Nc1ccccc1 (relative stereo) [Example 3, 5-endo-(6'-carboxyhex-2'Z-enyl)-6-exo-[N-(phenylcarbamoyl)-hydrazonomethyl]-bicyclo[2,2,1]heptane] | inhibition of aggregatory activity of 11,9-(epoxymethano) PGH2 / antagonism in platelet test (Human Platelets [1]): antagonists in the platelet test; antagonist/agonist character in rabbit aorta strip test (Rabbit Aorta): pure antagonists in the rabbit aorta strip test; block of aggregatory action of arachidonic acid (platelet): block the aggregatory action of archidonic acid; block of contractile action of noradrenaline (α-adrenoceptors): do not block the contractile action of noradrenaline
4760 | 1280 | O=C(O)CCC/C=C\C[C@H]1[C@H]2CC[C@H](C2)[C@@H]1C=NNC(=O)c1ccc(F)cc1 (relative stereo) [drawing 24] | –
1430 | 769 | O=C(O)CCC/C=C\C[C@H]1[C@H]2CC[C@H](C2)[C@@H]1C=NNC(=O)Nc1ccccc1 (relative stereo) [drawing 31] | –
